The text below walks through data of patent US20230404985A1, “METHODS OF TREATING TUMORS AND CANCERS HAVING DYSREGULATED WNT SIGNALING PATHWAYS” (ICAHN SCHOOL OF MEDICINE AT MOUNT SINAI, priority 2020, published 2023).

Series [1] relates to EZH2. Put plainly: Cellular fractionation, EZH2 localization in MYC-CTNNB1 tumor organoids. The conditions noted are these: WNTinib 1 μM, sorafenib 10 μM, 24 hours. In kind it is cell-based, mouse. Here is the method:
Cells were spun down again at 500 g, 4° C., for 5 minutes in ultra-low attachment 1.5 mL Eppendorf tubes. Cells were resuspended in 100 μL of lysis buffer 1 (50 mM HEPES-KOH, pH 7.5, 140 mM NaCl, 1 mM EDTA, 10% glycerol, 0.5% NP-40, 0.25% Triton X-100, lx protease/phosphatase inhibitors) and agitated at 4° C. for 10 minutes. Lysate was spun at 1,350 g, 4° C., for 5 minutes. The supernatant was saved for the cytoplasmic fraction. The pellet was resuspended in 100 μL of lysis buffer 2 (10 mM Tris-HCl, pH 8.0, 200 mM NaCl, 1 mM EDTA, 0.5 mM EGTA, lx protease/phosphatase inhibitors) and agitated at room temperature for 10 minutes. The supernatant was saved for the nuclear fraction. The pellet was resuspended in 35 μL of lysis buffer 3 (10 mM Tris-HCl, pH 8.0, 100 mM NaCl, 1 mM EDTA, 0.5 mM EGTA, 0.1% Na-Deoxycholate, 0.5% N-lauroylsarcosine, lx protease/phosphatase inhibitors) and agitated at 4° C. for 10 minutes. 1/10 volume of 10% Triton X-100 was added to the lysate, which was spun down at 20,000 g, 4° C., for 10 minutes. Supernatant was taken for chromatin fraction. […] SDS-PAGE was performed using standard procedures.
Next, EZH2 localization in WNTinib sensitive MYC-CTNNB1 and insensitive MYC-Tp53 tumor organoids was investigated. EZH2 localized diffusively in the MYC-CTNNB1 model but was primarily nuclear insoluble in the MYC-Tp53 model (FIG. 6E; lanes 7-9, left and right panels).

Series [2] has as its system pT367 EZH2 and pT71 ATF2. The note with it: WNTinib 1 μM, sorafenib 10 μM; for temporal inhibition of pT367 EZH2 and pT71 ATF2: MYC-CTNNB1 organoids, SB202190 10 μM, 48 hours time course; for modulation of pT367 EZH2 in the four tumor organoid models: 48 hours.
Description: Tumor organoids were grown in 24 well plates and were collected in Cell Recovery Solution (Corning) after drug treatment. Tumor organoids were left to rotate at 4° C. for one hour in order to dissolve the Matrigel. Tumor organoids were spun down at 300 g at 4° C. for 5 minutes. Pellets were lysed in 2× Laemmli buffer (+4% 2-mercaptoethanol) by heating at 95° C. for 10 minutes followed by 5 seconds of sonication. SDS-PAGE was run using standard procedures.
Series [3] has as its system MYC-CTNNB1 tumor organoids. Put plainly: Combination treatment matrices in MYC-CTNNB1 tumor organoids. In kind it is cell-based, mouse. The conditions noted are these: for effect of EZH2 degradation or inhibition (MS1943, GSK343) on activity: 3 days MS1943 or GSK343, then 3 days co-treatment; for Combination Index CI with p38i SB202190: titration of SB202190; for Combination Index CI with p38i SB202190 / Combination Index CI with KIT ligand SCF / Combination Index CI with BRAFi dabrafenib: 3 days; for Combination Index CI with KIT ligand SCF: titration of SCF; for Combination Index CI with BRAFi dabrafenib: titration of dabrafenib. From the text:
FIG. 6A-6C are Volcano plots depicting phosphoproteomic (FIG. 6A), transcriptomic (FIG. 6B), and orepigenomic H3K27me3 (FIG. 6C) changes elicited by WNTinib inMYC-CTNNB1 tumor organoids (left) or MYC-Tp53 tumor organoids (right) as compared to DMSO. […] Values obtained from two biological replicates. […] Western blots measure endogenous proteins as indicated. […] Tubulin and histone H3 used as fractionation controls. […] Inset: western blot depicting depletion efficiency. Values obtained from three biological replicates [mean, SEM]. […] Tumor organoids were first treated with MS1943 or GSK343 for 3 days, followed by co-treatment with sorafenib or WNTinib for an additional 3 days. […] Combination index (CI) values were calculated for each column and averaged across each matrix.
Tumor organoids were treated for 3 days. […] Combination index (CI) values were calculated for each column and averaged across each matrix. […] FIGS. 7G-7H show combination treatment matrices for MYC-CTNNB1 tumor organoids treated with sorafenib (right) or WNTinib (left) and the BRAF inhibitor dabrafenib (FIG. 7G), or the p38 inhibitor SB202190 (FIG. 7H). Tumor organoids were treated for 3 days. […] Combination index (CI) values were calculated for each column and averaged across each matrix. […] Values obtained from three technical replicates [mean, SEM].
For assays in organoid lines, 96 well plates were first coated with a 50:50 solution of basal media:Matrigel (35 μL/well), which polymerized for 15 minutes at 37° C. Tumor organoids were taken out of Matrigel, broken, and washed. Tumor organoids were seeded at 1,000 cells per well and were treated the following day with serial dilutions (in the case of IC50 curves) or single doses (in the case of the initial screen) of drugs in technical triplicate. Final DMSO concentrations were kept below 0.5%. For adherent lines, cells were seeded at 5,000 cells per well in uncoated 96 well plates. […] Viability was measured three days post drug administration with either luminescence from CellTiter-Glo or absorbance at 560 and 590 nm from resazurin. Viability data was analyzed by normalizing individual drug-treated well values to DMSO-treated wells.

A short description of series [4]: Single dose oral pharmacokinetics. In kind it is in vivo, BALB/c mice. The note with it: for half-life: 20 mg/kg oral gavage. Here is the method: All animal experiments were carried out in accordance with ethical guidelines and approved by the Institutional Animal Care and Use Committee (IACUC), Biological Resource Center (BRC) A*STAR. BALB/c mice were purchased from InVivos, Singapore and fed with a standard laboratory diet and distilled water ad libitum. The animals were kept on a 12-hour light/dark cycle at 22±2° C. in individually ventilated caging systems with 50-65% humidity in the Biological Resource Centre, A*Star, Singapore. For single dose oral pharmacokinetic studies, female BALB/c mice (n=8, 6-8 weeks old) were used. The animals were fasted overnight and administered with a single oral dose (20 mg/kg) of WNTinib as prepared above. Blood samples were collected at pre-determined time points [0 (pre-dosing), 0.5, 1, 2, 4, 8, 12, and 24 hours] through the retro-orbital plexus (using micro hematocrit capillary tubes) into microvette CB300 K2E tubes. A sparse sampling technique (four mice per time point) was adopted during blood collection so that blood loss from each mouse was kept less than 10% of the total blood volume. Plasma was harvested by centrifuging the blood using a Sorvall Legend Micro 21R centrifuge (Thermo Scientific) at 3000 rpm for 15 minutes and stored at […] until further analysis. Mice were allowed to access feed 2 hours post-dosing and water ad libitum. Pharmacokinetic analysis of these compounds was performed using a Shimadzu UFLC prominence system (equipped with degasser (DGU-20A5), isopump (LC-20AD), autosampler (SIL-20AC HT) and column oven (CTO-20AC)) connected to a Sciex 4000 Q-Trap LC/MS/MS with heated electrospray ionization source. The primary stock solution (1.0 mg/mL) of WNTinib and Carbamazepine (Internal Standard, IS) were prepared in DMSO and used for subsequent dilutions. Required secondary and working stocks were prepared from the primary stocks using acetonitrile:water (75:25, v/v) as a diluent for the calibration curve (CC) and quality control (QC) studies. For the pharmacokinetic analysis, the mouse plasma was mixed with carbamazepine (50 ng/ml, final concentration) and extraction solvent (70% acetonitrile and 0.1% formic acid) and shaken for 10 minutes. After vigorous shaking, the samples were centrifuged at 14000 rpm for 20 minutes and the supernatant was collected. Chromatographic resolution of compound and the IS was achieved by injecting 1-2 μL of the processed sample on a Luna C18 100 Å column (50×2.0 mm, 5 μm; Phenomenex, USA) maintained at room temperature using a mobile phase consisting of 5 mM ammonium formate (buffered with 0.1% formic acid) and acetonitrile delivered at a flow-rate of 0.4 mL/minute. Quantitation was carried out using the multiple reaction monitoring of the transitions.

Each structure is given as a SMILES string.

Broadly, the half-life is the time in which the quantity being followed falls by half. In the case of `CNC(=O)c1cc(Oc2ccc(NC(=O)Nc3ccc(C(F)(F)C(F)(F)F)cc3)c(F)c2)ccn1` [WNTinib, 4-(3-fluoro-4-(3-(4-(perfluoroethyl)phenyl)ureido)phenoxy)-N-methylpicolinamide], in series [1], the “nuclear partitioning of EZH2” value is “increase in nuclear partitioning of EZH2” and the “pT367 EZH2 in the cytoplasm” value is on record as “ablated”. Besides, in series [2], the “temporal inhibition of pT367 EZH2 and pT71 ATF2” value is given as “delayed, but durable inhibition up to 48 hours”; the “modulation of pT367 EZH2 in the four tumor organoid models” value is “inhibited by WNTinib in the MYC-CTNNB1 model”. Further, in series [3], the “effect of EZH2 degradation or inhibition (MS1943, GSK343) on activity” value is “antagonized the activity of WNTinib”; the “Combination Index CI with p38i SB202190” value is given as greater than 1; the “Combination Index CI with KIT ligand SCF” value was greater than 1; the “Combination Index CI with BRAFi dabrafenib” value was greater than 1. Also, in series [4] (20 mg/kg oral), the “detectable quantities of drug in blood plasma, time post dosing” value is reported as “up to 72 hours”. For the same molecule, the half-life in series [4] (female, BALB/c, mouse, plasma) is 9.38 h. For the same molecule, the concentration at 24 h in series [4] (female, BALB/c, mouse, plasma, 20 mg/kg oral, read-out: concentration 24 hours after oral dosing) worked out at 7 µM.

For the molecule `CNC(=O)c1cc(Oc2ccc(NC(=O)Nc3ccc(Cl)c(C(F)(F)F)c3)cc2)ccn1` [sorafenib, reference compound], in series [1], the “nuclear partitioning of EZH2” value is “did not impact phosphorylation or nuclear to cytoplasmic ratios of EZH2” and the “pT367 EZH2 in the cytoplasm” value is recorded as “did not impact phosphorylation”. In addition, in series [2], the “temporal inhibition of pT367 EZH2 and pT71 ATF2” value is listed as “transient inhibition”; the “modulation of pT367 EZH2 in the four tumor organoid models” value is on record as “induced pT367 across several organoid models”. Also, in series [3], the “effect of EZH2 degradation or inhibition (MS1943, GSK343) on activity” value was “did not alter the dose response to sorafenib”; the “Combination Index CI with p38i SB202190” value is “this was not the case for sorafenib”; the “Combination Index CI with KIT ligand SCF” value was “only WNTinib and not sorafenib activity was antagonized”; the “Combination Index CI with BRAFi dabrafenib” value is recorded as “this was not the case for sorafenib”. The same molecule had a half-life in series [4] (female, BALB/c, mouse, plasma) of 8 h.
